Results on two compounds are retold here after patent US9238637B2, “Stable polymorphic forms of compound as hypoxia mimetics, and uses thereof” (BEIJING BETTA PHARMACEUTICALS CO., LTD, priority 2011, dated 2016).

Data set [1] deals with adenine-induced renal anemic rats. The experiment in a line: Efficacy studies in adenine-induced renal anemic rats. Format: in vivo, Wistar rats. The procedure:
Six-week-old male Wistar rats were divided to the control group and treatment groups. After given the standard chow for 10 days, the control group continued on the standard chow while the treatment groups were given the standard chow with the addition of 0.75% adenine for 30 days when the treatment groups developed anemia. All the groups were then switched back to the standard chow, and the treatment groups were dosed orally with vehicle or a suspension of one crystal form of the compound in 0.5% CMC-Na at 20, 40 or 80 mg/kg once a day for 4 weeks. Blood samples were obtained from the orbital venous plexus on days 0, 5, 12, 19 and 27. An Automated Hematology Analyzer MEK-6318K was used to determine hematological parameters such as erythrocyte counts (RBC), hemoglobin concentration (HGB), hematocrit value (HCT).

Another data set has as its system Erythropoietin (EPO). The data set is described as follows: Determination of erythropoietin (EPO) induction in normal mice. Format: in vivo. The settings on record: male C57BL/6 mice, oral suspension in 0.5% CMC, 60 mg/kg, serum 6 hours after dosing. The procedure: Eight-week-old male C57BL/6 mice were dosed orally with a suspension of one crystal form of the compound in 0.5% CMC at 20, 60 and 100 mg/kg. Blood samples were obtained from the orbital venous plexus 6 hours after dosing and serum was collected (see also, Robinson A, et al., Gastroenterology. 2008, 134:145-55; Hsieh M M, et al., Blood. 2007, 110:2140-7). Samples were analyzed for EPO by electrochemiluminescence-based immunoassay (MSD) according to manufacturer's instructions. The inducted EPO when the Crystalline Form III in this invention was used in suspension was determined to be above 35 folds over that of the vehicle group without induction at the dosage of 60 mg/kg.

The nature of data set [2]: Stability determination of crystal forms (slurry in ethyl acetate, XRPD). It counts as physicochemical. The settings on record: 72 hrs. Here is the method:
100 mg of the compound of Formula I prepared from the method disclosed in Example 1 above (mixed crystal forms) was added into 2 mL of Ethyl Acetate and stirred at room temperature for 72 hrs. After centrifugation and drying, the resulted crystal form was determined by XRPD to be purely the Crystalline Form III.
50 mg of the compound of Formula I prepared from the method disclosed in Example 1 above (mixed crystal forms) was added into 1 mL of Ethyl Acetate and stirred at 50° C. for 72 hrs. After centrifugation and drying, the resulted crystal form was determined by XRPD to be purely the Crystalline Form III.

In the next data set the target is T1, full length PHD2 (Homo sapiens, UniProt Q9GZT9).
T1 construct: containing 600 nM full length PHD2
The experiment in a line: Assay of HIF-PHD2 enzyme activity (homogeneous TR-FRET). Format: biochemical. The settings on record: 600 nM full length PHD2, 0.2 μM 2-oxoglutarate, 0.5 μM HIF-1α peptide, 2 hrs room temperature. The procedure:
HIF-PHD2 activity was measured using homogeneous TR-FRET technology (see also, US2008/004817; Dao J H et al., Anal Biochem. 2009, 384:213-23). To each well of a ½Area 96-well plate was added 2 μL DMSO solution of test compound and 40 μL of assay buffer (50 mM Tris PH7.4/0.01% Tween-20/0.1 mg/ml BSA/1 mM Sodium ascorbate/20 μg/ml Catalase/10 μM FeSO4) containing 600 nM full length PHD2. After a 30 min preincubation at room temperature, the enzymatic reactions were initiated by the addition of 8 μL of substrates (final concentrations of 0.2 μM 2-oxoglutarate and 0.5 μM HIF-1α peptide biotinyl-DLDLEMLAPYIPMDDDFQL). After 2 hrs. at room temperature, the reactions were terminated and signals were developed by the addition of a 50 μL quench/detection mix to a final concentration of 1 mM ortho-phenanthroline, 0.1 mM EDTA, 0.5 nM anti-(His)6LANCE reagent, 100 nM AF647-labeled Streptavidin, and 30 nM (His)6-VHL-elonginB-elonginC complex. The ratio of time resolved fluorescence signals at 665 and 620 nm was determined, and percent inhibition was calculated relative to an uninhibited control sample run in parallel.

T1 sequence (Q9GZT9 whole entry, species assumed): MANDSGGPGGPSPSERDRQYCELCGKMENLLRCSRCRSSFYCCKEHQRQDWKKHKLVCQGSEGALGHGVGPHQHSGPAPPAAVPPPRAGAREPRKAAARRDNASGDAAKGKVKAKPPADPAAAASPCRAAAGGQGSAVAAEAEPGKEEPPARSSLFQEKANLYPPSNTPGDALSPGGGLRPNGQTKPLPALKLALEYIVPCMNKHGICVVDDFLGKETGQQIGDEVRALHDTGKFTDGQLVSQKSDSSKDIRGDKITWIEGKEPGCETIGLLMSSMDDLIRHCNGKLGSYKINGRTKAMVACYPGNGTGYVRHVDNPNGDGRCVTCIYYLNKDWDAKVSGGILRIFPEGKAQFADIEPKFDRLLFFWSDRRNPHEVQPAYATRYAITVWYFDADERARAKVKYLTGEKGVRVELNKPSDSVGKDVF

With `Cc1cccc(-c2cccc3c(O)c(C(=O)NCC(=O)O)c(=O)oc23)c1` [Crystalline Form III, N-[(4-hydroxy-2-oxo-8-(3-methyl-phenyl)-2H-3-coloralkenyl)carbonyl]glycine], the HGB in data set [1] (20 mg/kg oral once a day, Day 0) was determined as 88.0 g/L; in data set [1] (20 mg/kg oral once a day, Day 5), 60.7 g/L; in data set [1] (20 mg/kg oral once a day, Day 12), 64.3 g/L; in data set [1] (20 mg/kg oral once a day, Day 19), 73.3 g/L; in data set [1] (20 mg/kg oral once a day, Day 27) it was 90.7 g/L; in data set [1] (40 mg/kg oral once a day, Day 0), 87.4 g/L. In addition, the HGB in data set [1] (40 mg/kg oral once a day, Day 5) was 69.4 g/L; in data set [1] (40 mg/kg oral once a day, Day 12) it was 87.2 g/L; in data set [1] (40 mg/kg oral once a day, Day 19) it was 89.7 g/L; in data set [1] (40 mg/kg oral once a day, Day 27), 103.6 g/L; in data set [1] (80 mg/kg oral once a day, Day 0), 86.8 g/L; in data set [1] (80 mg/kg oral once a day, Day 5), 76.7 g/L. The HGB is 111.0 g/L in data set [1] (80 mg/kg oral once a day, Day 12); 122.0 g/L in data set [1] (80 mg/kg oral once a day, Day 19); 139.0 g/L in data set [1] (80 mg/kg oral once a day, Day 27). Moreover, the “effect on HGB levels (in words)” value in data set [1] (20, 40 or 80 mg/kg oral once a day for 4 weeks) is “improved the HGB levels in the animals and corrected them toward normal”. Further, in the data set on Erythropoietin (EPO), the “inducted EPO over that of the vehicle group” value was “above 35 folds”. Moreover, the “thermodynamic stability of crystal form” value in data set [2] (50° C.) and in data set [2] (room temperature) was “thermodynamically the more stable crystal form” each time.
`Cc1cccc(-c2cccc3c(O)c(C(=O)NCC(=O)O)c(=O)oc23)c1` [compound of Formula I, N-[(4-hydroxy-2-oxo-8-(3-methyl-phenyl)-2H-3-coloralkenyl)carbonyl]glycine] yielded a 50% inhibitory concentration (IC50) on full length PHD2 of approximately 150 nM.
